According to BindingDB's records for doi:10.1016/0968-0896(96)00134-4 (Parke-Davis Pharmaceutical Research, 1996):

The compounds below were run against T1, Dimer of Gag-Pol polyprotein [489-587] (Human immunodeficiency virus 1, UniProt P12497) (assay: Protease Inhibition Assay). Conditions: pH 4.7; 37 °C.
T1 construct: 489-587
Procedure: For determination of IC50 values, HIV-1 protease was added to assay buffer containing inhibitor and the substrate (H-His-Lys-Ala-Arg-Val-Leu- (p-NO2) Phe-Glu-Ala-norleucine-Ser-NH2). The Leu- (p-NO2) Phe bond of the substrate was cleaved by the enzyme, and the substrate and products were separated by reversed-phase HPLC. Absorbance was measured at 220 nm, peak areas were determined, and percentage conversion to product was calculated.
Compound `O=c1oc(-c2ccccc2)cc(O)c1Sc1ccccc1` has an IC50 of 3000 nM. `O=C(CCCCC1CCCCC1)OCC(O)C1OC(=O)C(O)C1=O` (stereo unspecified) [2-(3,4-dihydroxy-5-oxo-2,5-dihydrofuran-2-yl)-2-hydroxyethyl 5-cyclohexylpentanoate] gave an IC50 of 29000 nM. With `O=C(O)c1cc(-c2ccc(Cl)cc2)nc2cc(O)ccc12` [2-(4-chlorophenyl)-7-hydroxyquinoline-4-carboxylic acid] the IC50 was 6900 nM. Work on `O=C(O)COc1ccc(-c2cc(O)c(SCCc3ccccc3)c(=O)o2)cc1` [2-(4-{4-hydroxy-2-oxo-3-[(2-phenylethyl)sulfanyl]-2H-pyran-6-yl}phenoxy)acetic acid] yielded an IC50 of 160 nM. For `O=C(CCc1ccc(Br)cc1)c1ccc(CC(=O)c2ccccc2-c2ccccc2C(=O)O)cc1` [2-[2-(2-{4-[3-(4-bromophenyl)propanoyl]phenyl}acetyl)phenyl]benzoic acid], the IC50 was 19000 nM. For `O=C(O)c1cc(O)c(O)cc1C(=O)c1cc(Cl)ccc1Cl` [2-[(2,5-dichlorophenyl)carbonyl]-4,5-dihydroxybenzoic acid], the IC50 was 8100 nM. In the case of `O=c1oc(-c2ccccc2)cc(O)c1SCc1ccccc1` [3-(benzylsulfanyl)-4-hydroxy-6-phenyl-2H-pyran-2-one], the IC50 is reported as 1700 nM. For `Cc1cccc(-c2cc(O)c(Sc3ccccc3C(C)(C)C)c(=O)o2)c1` [3-[(2-tert-butylphenyl)sulfanyl]-4-hydroxy-6-(3-methylphenyl)-2H-pyran-2-one], the IC50 was 7 nM. With `CC(C)(C)c1ccccc1Sc1c(O)cc(-c2ccccc2)oc1=O` [3-[(2-tert-butylphenyl)sulfanyl]-4-hydroxy-6-phenyl-2H-pyran-2-one] the IC50 was 17 nM. For `O=c1oc2ccccc2c(O)c1Cc1ccccc1` [3-benzyl-4-hydroxy-2H-chromen-2-one], the IC50 was 120000 nM. With `Cc1ccccc1Sc1c(O)cc(-c2ccccc2)oc1=O` [4-hydroxy-3-[(2-methylphenyl)sulfanyl]-6-phenyl-2H-pyran-2-one] the IC50 was 420 nM. Work on `O=c1oc(-c2ccc(O)cc2)cc(O)c1SCCc1ccccc1` [4-hydroxy-6-(4-hydroxyphenyl)-3-[(2-phenylethyl)sulfanyl]-2H-pyran-2-one] yielded an IC50 of 520 nM. For `O=c1oc(-c2ccccc2)cc(O)c1SCCc1ccccc1` [4-hydroxy-6-phenyl-3-[(2-phenylethyl)sulfanyl]-2H-pyran-2-one], the IC50 was 1300 nM. In the case of `CC(C)c1ccccc1Sc1c(O)cc(-c2ccccc2)oc1=O` [4-hydroxy-6-phenyl-3-{[2-(propan-2-yl)phenyl]sulfanyl}-2H-pyran-2-one], the IC50 is reported as 37 nM. For `O=c1cc(Cc2cccc(Cl)c2)[nH][nH]1` [5-[(3-chlorophenyl)methyl]-2,3-dihydro-1H-pyrazol-3-one], the IC50 was 29000 nM.

Same assay, conditions: pH 6.2; 37 °C
In the case of `CC(C)c1ccccc1Sc1c(O)cc(-c2ccccc2)oc1=O` [4-hydroxy-6-phenyl-3-{[2-(propan-2-yl)phenyl]sulfanyl}-2H-pyran-2-one], the IC50 is reported as 690 nM.
